From ChEMBL document CHEMBL5303573, “Mapping human microbiome drug metabolism by gut bacteria and their genes” (Nature, 2019) come the findings set out here.

One data set in a line: The drug is tested on Bifidobacterium breve strain: DSM20213 for biotransformation. The drug concentrations were measured before and after a 12-h incubation by liquid-chromatography-coupled mass spectrometry (LC–MS). Particulars: 2 µM.
In the case of `CN[C@H]1CC[C@@H](c2ccc(Cl)c(Cl)c2)c2ccccc21` [SERTRALINE], the “Bacterial Biotransformation” value was “Compound NOT metabolized”.
As to `Cc1cn([C@H]2C[C@H](N=[N+]=[N-])[C@@H](CO)O2)c(=O)[nH]c1=O` [ZIDOVUDINE], the “Bacterial Biotransformation” value is reported as “Compound NOT metabolized”.
On the same count and under the same terms, for `Nc1c2c(nc3ccccc13)CCCC2` [TACRINE] the value was “Compound NOT metabolized”.

The next data set can be described thus: The drug is tested on Bacteroides caccae strain: ATCC43185 for biotransformation. The drug concentrations were measured before and after a 12-h incubation by liquid-chromatography-coupled mass spectrometry (LC–MS). Particulars: 2 µM.
Take `CCN(CC)CCNC(C(=O)OCCC(C)C)c1ccccc1.Cl.Cl` (stereo not given): the “Bacterial Biotransformation” value is given as “Compound NOT metabolized”.
On the same count and under the same terms, the value for `CN[C@H]1CC[C@@H](c2ccc(Cl)c(Cl)c2)c2ccccc21` [SERTRALINE] was “Compound NOT metabolized”; that for `Cc1cn([C@H]2C[C@H](N=[N+]=[N-])[C@@H](CO)O2)c(=O)[nH]c1=O` [ZIDOVUDINE] was “Compound NOT metabolized”; that for `Nc1c2c(nc3ccccc13)CCCC2` [TACRINE] was “Compound NOT metabolized”.

The next data set is described as follows: The drug is tested on Bacteroides finegoldii strain: DSM17565 for biotransformation. The drug concentrations were measured before and after a 12-h incubation by liquid-chromatography-coupled mass spectrometry (LC–MS). The conditions noted are these: 2 µM.
In the case of `CCN(CC)CCNC(C(=O)OCCC(C)C)c1ccccc1.Cl.Cl` (stereo not given), the “Bacterial Biotransformation” value is on record as “Compound NOT metabolized”.
The same measure, in the same setting: the value for `CN[C@H]1CC[C@@H](c2ccc(Cl)c(Cl)c2)c2ccccc21` [SERTRALINE] was “Compound NOT metabolized”.
The same measure, in the same setting: the value for `Cc1cn([C@H]2C[C@H](N=[N+]=[N-])[C@@H](CO)O2)c(=O)[nH]c1=O` [ZIDOVUDINE] was “Compound NOT metabolized”.
Still for that read-out and setting: for `Nc1c2c(nc3ccccc13)CCCC2` [TACRINE] the value was “Compound NOT metabolized”.

The next data set is described as follows: The drug is tested on Bacteroides fragilis strain: ATCC43859 for biotransformation. The drug concentrations were measured before and after a 12-h incubation by liquid-chromatography-coupled mass spectrometry (LC–MS). The conditions noted are these: 2 µM.
Turning to `CN[C@H]1CC[C@@H](c2ccc(Cl)c(Cl)c2)c2ccccc21` [SERTRALINE], the “Bacterial Biotransformation” value is “Compound NOT metabolized”.

A further data set in a line: The drug is tested on Bacteroides ovatus strain: ATCC8483 for biotransformation. The drug concentrations were measured before and after a 12-h incubation by liquid-chromatography-coupled mass spectrometry (LC–MS). The conditions noted are these: 2 µM.
As for `CCN(CC)CCNC(C(=O)OCCC(C)C)c1ccccc1.Cl.Cl` (stereo not given), the “Bacterial Biotransformation” value is “Compound NOT metabolized”.
`CN[C@H]1CC[C@@H](c2ccc(Cl)c(Cl)c2)c2ccccc21` [SERTRALINE]: the “Bacterial Biotransformation” value is “Compound NOT metabolized”.
For the compound `Cc1cn([C@H]2C[C@H](N=[N+]=[N-])[C@@H](CO)O2)c(=O)[nH]c1=O` [ZIDOVUDINE], the “Bacterial Biotransformation” value is recorded as “Compound NOT metabolized”.

Another data set can be described thus: The drug is tested on Blautia luti strain: DSM14534 for biotransformation. The drug concentrations were measured before and after a 12-h incubation by liquid-chromatography-coupled mass spectrometry (LC–MS). It counts as ADME. Set-up: dose 2 uM, timepoint 0 vs 12 hours. The conditions noted are these: 2 µM.
Take `CCN(CC)CCNC(C(=O)OCCC(C)C)c1ccccc1.Cl.Cl` (stereo not given): the “Bacterial Biotransformation” value was “Compound NOT metabolized”.
Turning to `CN[C@H]1CC[C@@H](c2ccc(Cl)c(Cl)c2)c2ccccc21` [SERTRALINE], the “Bacterial Biotransformation” value is on record as “Compound NOT metabolized”.
Still for that read-out and setting: the value for `Cc1cn([C@H]2C[C@H](N=[N+]=[N-])[C@@H](CO)O2)c(=O)[nH]c1=O` [ZIDOVUDINE] was “Compound NOT metabolized”; that for `Nc1c2c(nc3ccccc13)CCCC2` [TACRINE] was “Compound NOT metabolized”.

A short description of the next data set: The drug is tested on Clostridium sp. strain: fecal isolate for biotransformation. The drug concentrations were measured before and after a 12-h incubation by liquid-chromatography-coupled mass spectrometry (LC–MS). The conditions noted are these: 2 µM.
For `Nc1c2c(nc3ccccc13)CCCC2` [TACRINE], the “Bacterial Biotransformation” value is listed as “Compound NOT metabolized”.

Another data set can be described thus: The drug is tested on Clostridium scindens strain: ATCC35704 for biotransformation. The drug concentrations were measured before and after a 12-h incubation by liquid-chromatography-coupled mass spectrometry (LC–MS). The conditions noted are these: 2 µM.
Regarding `CCN(CC)CCNC(C(=O)OCCC(C)C)c1ccccc1.Cl.Cl` (stereo not given), the “Bacterial Biotransformation” value is listed as “Compound NOT metabolized”.
For `CN[C@H]1CC[C@@H](c2ccc(Cl)c(Cl)c2)c2ccccc21` [SERTRALINE], the “Bacterial Biotransformation” value was “Compound NOT metabolized”.
As to `Cc1cn([C@H]2C[C@H](N=[N+]=[N-])[C@@H](CO)O2)c(=O)[nH]c1=O` [ZIDOVUDINE], the “Bacterial Biotransformation” value is on record as “Compound NOT metabolized”.
Consider `Nc1c2c(nc3ccccc13)CCCC2` [TACRINE], for which the “Bacterial Biotransformation” value is on record as “Compound NOT metabolized”.

Another data set in a line: The drug is tested on Clostridium symbiosum strain: ATCC14940 for biotransformation. The drug concentrations were measured before and after a 12-h incubation by liquid-chromatography-coupled mass spectrometry (LC–MS). The conditions noted are these: 2 µM.
Regarding `CCN(CC)CCNC(C(=O)OCCC(C)C)c1ccccc1.Cl.Cl` (stereo not given), the “Bacterial Biotransformation” value is given as “Compound NOT metabolized”.
For `CN[C@H]1CC[C@@H](c2ccc(Cl)c(Cl)c2)c2ccccc21` [SERTRALINE], the “Bacterial Biotransformation” value is “Compound NOT metabolized”.
Still for that read-out and setting: the value for `Cc1cn([C@H]2C[C@H](N=[N+]=[N-])[C@@H](CO)O2)c(=O)[nH]c1=O` [ZIDOVUDINE] was “Compound NOT metabolized”.
Turning to `Nc1c2c(nc3ccccc13)CCCC2` [TACRINE], the “Bacterial Biotransformation” value is recorded as “Compound NOT metabolized”.

A short description of a further data set: The drug is tested on Eubacterium hallii strain: DSM3353 for biotransformation. The drug concentrations were measured before and after a 12-h incubation by liquid-chromatography-coupled mass spectrometry (LC–MS). The conditions noted are these: anaerobutyricum hallii, 2 µM.
For the compound `CCN(CC)CCNC(C(=O)OCCC(C)C)c1ccccc1.Cl.Cl` (stereo not given), the “Bacterial Biotransformation” value was “Compound NOT metabolized”.
On the same count and under the same terms, for `CN[C@H]1CC[C@@H](c2ccc(Cl)c(Cl)c2)c2ccccc21` [SERTRALINE] the value was “Compound NOT metabolized”; for `Cc1cn([C@H]2C[C@H](N=[N+]=[N-])[C@@H](CO)O2)c(=O)[nH]c1=O` [ZIDOVUDINE], “Compound NOT metabolized”; for `Nc1c2c(nc3ccccc13)CCCC2` [TACRINE], “Compound NOT metabolized”.

The nature of a further data set: The drug is tested on Eubacterium rectale strain: ATCC33656 for biotransformation. The drug concentrations were measured before and after a 12-h incubation by liquid-chromatography-coupled mass spectrometry (LC–MS). The conditions noted are these: agathobacter rectalis, 2 µM.
As for `CN[C@H]1CC[C@@H](c2ccc(Cl)c(Cl)c2)c2ccccc21` [SERTRALINE], the “Bacterial Biotransformation” value was “Compound NOT metabolized”.
Still for that read-out and setting: for `Cc1cn([C@H]2C[C@H](N=[N+]=[N-])[C@@H](CO)O2)c(=O)[nH]c1=O` [ZIDOVUDINE] the value was “Compound NOT metabolized”; for `Nc1c2c(nc3ccccc13)CCCC2` [TACRINE], “Compound NOT metabolized”.

The nature of a further data set: The drug is tested on Subdoligranulum variabile strain: DSM15176 for biotransformation. The drug concentrations were measured before and after a 12-h incubation by liquid-chromatography-coupled mass spectrometry (LC–MS). The conditions noted are these: 2 µM.
`CCN(CC)CCNC(C(=O)OCCC(C)C)c1ccccc1.Cl.Cl` (stereo not given): the “Bacterial Biotransformation” value was “Compound metabolized”.
On to `CN[C@H]1CC[C@@H](c2ccc(Cl)c(Cl)c2)c2ccccc21` [SERTRALINE], for which the “Bacterial Biotransformation” value is reported as “Compound NOT metabolized”.
Same read-out and setting: the value for `Cc1cn([C@H]2C[C@H](N=[N+]=[N-])[C@@H](CO)O2)c(=O)[nH]c1=O` [ZIDOVUDINE] was “Compound NOT metabolized”; that for `Nc1c2c(nc3ccccc13)CCCC2` [TACRINE] was “Compound NOT metabolized”.

A further data set is described as follows: The drug is tested on Enterobacter cancerogenus strain: ATCC35316 for biotransformation. The drug concentrations were measured before and after a 12-h incubation by liquid-chromatography-coupled mass spectrometry (LC–MS). Particulars: 2 µM.
Consider `CCN(CC)CCNC(C(=O)OCCC(C)C)c1ccccc1.Cl.Cl` (stereo not given), for which the “Bacterial Biotransformation” value was “Compound NOT metabolized”.
Same read-out and setting: for `CN[C@H]1CC[C@@H](c2ccc(Cl)c(Cl)c2)c2ccccc21` [SERTRALINE] the value was “Compound NOT metabolized”; for `Cc1cn([C@H]2C[C@H](N=[N+]=[N-])[C@@H](CO)O2)c(=O)[nH]c1=O` [ZIDOVUDINE], “Compound NOT metabolized”; for `Nc1c2c(nc3ccccc13)CCCC2` [TACRINE], “Compound NOT metabolized”.

A short description of another data set: The drug is tested on Escherichia coli strain: BW25113 for biotransformation. The drug concentrations were measured before and after a 12-h incubation by liquid-chromatography-coupled mass spectrometry (LC–MS). The conditions noted are these: 2 µM.
`CN[C@H]1CC[C@@H](c2ccc(Cl)c(Cl)c2)c2ccccc21` [SERTRALINE]: the “Bacterial Biotransformation” value was “Compound NOT metabolized”.
Same read-out and setting: the value for `Cc1cn([C@H]2C[C@H](N=[N+]=[N-])[C@@H](CO)O2)c(=O)[nH]c1=O` [ZIDOVUDINE] was “Compound NOT metabolized”.

The conditions of a further data set: bacteroides fragilis, 12 h, 2 µM.
Description: The drug is tested on Bacteroides fragilis strain: NCTC 9343 for biotransformation. The drug concentrations were measured before and after a 12-h incubation by liquid-chromatography-coupled mass spectrometry (LC–MS)
For the compound `CN[C@H]1CC[C@@H](c2ccc(Cl)c(Cl)c2)c2ccccc21` [SERTRALINE], the “Bacterial Biotransformation” value is recorded as “Compound NOT metabolized”.

The conditions of the next data set: bacteroides fragilis, 12 h, 2 µM. The source holds these as a separate data set.
Description: The drug is tested on Bacteroides fragilis strain: DS-208 for biotransformation. The drug concentrations were measured before and after a 12-h incubation by liquid-chromatography-coupled mass spectrometry (LC–MS)
For the compound `CCN(CC)CCNC(C(=O)OCCC(C)C)c1ccccc1.Cl.Cl` (stereo not given), the “Bacterial Biotransformation” value is reported as “Compound NOT metabolized”.
Same read-out and setting: the value for `CN[C@H]1CC[C@@H](c2ccc(Cl)c(Cl)c2)c2ccccc21` [SERTRALINE] was “Compound NOT metabolized”.
As to `Nc1c2c(nc3ccccc13)CCCC2` [TACRINE], the “Bacterial Biotransformation” value is “Compound NOT metabolized”.

For another data set the following is noted: bacteroides thetaiotaomicron, 12 h, 2 µM.
Description: The drug is tested on Bacteroides thetaiotaomicron strain: VPI-5482 for biotransformation. The drug concentrations were measured before and after a 12-h incubation by liquid-chromatography-coupled mass spectrometry (LC–MS)
As to `CCN(CC)CCNC(C(=O)OCCC(C)C)c1ccccc1.Cl.Cl` (stereo not given), the “Bacterial Biotransformation” value is listed as “Compound NOT metabolized”.
As for `CN[C@H]1CC[C@@H](c2ccc(Cl)c(Cl)c2)c2ccccc21` [SERTRALINE], the “Bacterial Biotransformation” value is “Compound NOT metabolized”.
`Cc1cn([C@H]2C[C@H](N=[N+]=[N-])[C@@H](CO)O2)c(=O)[nH]c1=O` [ZIDOVUDINE]: the “Bacterial Biotransformation” value was “Compound NOT metabolized”.
Take `Nc1c2c(nc3ccccc13)CCCC2` [TACRINE]: the “Bacterial Biotransformation” value is “Compound NOT metabolized”.

The conditions of the next data set: bacteroides thetaiotaomicron, 12 h, 2 µM. This is another data set of the same source.
Description: The drug is tested on Bacteroides thetaiotaomicron strain: 3731 for biotransformation. The drug concentrations were measured before and after a 12-h incubation by liquid-chromatography-coupled mass spectrometry (LC–MS)
Regarding `CN[C@H]1CC[C@@H](c2ccc(Cl)c(Cl)c2)c2ccccc21` [SERTRALINE], the “Bacterial Biotransformation” value is “Compound NOT metabolized”.
Still for that read-out and setting: for `Cc1cn([C@H]2C[C@H](N=[N+]=[N-])[C@@H](CO)O2)c(=O)[nH]c1=O` [ZIDOVUDINE] the value was “Compound NOT metabolized”.
Still for that read-out and setting: for `Nc1c2c(nc3ccccc13)CCCC2` [TACRINE] the value was “Compound NOT metabolized”.

For a further data set the following is noted: parabacteroides distasonis, 12 h, 2 µM.
Description: The drug is tested on Parabacteroides distasonis strain: ATCC8503 for biotransformation. The drug concentrations were measured before and after a 12-h incubation by liquid-chromatography-coupled mass spectrometry (LC–MS)
For `CCN(CC)CCNC(C(=O)OCCC(C)C)c1ccccc1.Cl.Cl` (stereo not given), the “Bacterial Biotransformation” value is given as “Compound NOT metabolized”.
In the case of `CN[C@H]1CC[C@@H](c2ccc(Cl)c(Cl)c2)c2ccccc21` [SERTRALINE], the “Bacterial Biotransformation” value is recorded as “Compound NOT metabolized”.
In the case of `Cc1cn([C@H]2C[C@H](N=[N+]=[N-])[C@@H](CO)O2)c(=O)[nH]c1=O` [ZIDOVUDINE], the “Bacterial Biotransformation” value is on record as “Compound NOT metabolized”.
On to `Nc1c2c(nc3ccccc13)CCCC2` [TACRINE], for which the “Bacterial Biotransformation” value was “Compound NOT metabolized”.
